Like-named read-outs stand apart in the source and are kept apart here.
Experiments:
[1] = target: wild-type Choristoneura fumiferana EcR (D, E and F domains) (Choristoneura fumiferana, UniProt O77240); format: cell-based; settings: WT-CtEcR, 3T3 Cells; for RMFI (relative maximum fold induction): relative to GS-E ligand
Outline: (§1)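 NIH3T3 cells were transiently co-transfected with GAL4-DBD fused to CfEcR DEF domains (wild-type or V390I/Y410E/E274V), VP16-AD fused to chimeric human/Locusta RXR, and a GAL4-response luciferase reporter. Ligand was given at 8 doses, 0.01–33 µM, 0.33% DMSO, luciferase read at 48 h. EC50 came from fold induction over DMSO via three-parameter logistic fit; Relative Max FI was taken versus GS™-E ligand.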

[2] = target: T1, [V390I/Y410E/E274V]-CfEcR (Choristoneura fumiferana, UniProt O77240); format: cell-based; settings: 3T3 Cells; for RMFI (relative maximum fold induction): relative to GS-E ligand
T1 construct: assay construct b835
Outline: as §1

Row | SMILES | melting point | EC50 ([1]; R) | RMFI (relative maximum fold induction) ([1]; R) | EC50 ([2]; R) | RMFI (relative maximum fold induction) ([2]; R) | EC50 ([1]; S) | RMFI (relative maximum fold induction) ([1]; S) | EC50 ([2]; S) | RMFI (relative maximum fold induction) ([2]; S) | EC50 ([1]; rac, read-out: EC50) | RMFI (relative maximum fold induction) ([1]; rac) | EC50 ([2]; rac, read-out: EC50) | RMFI (relative maximum fold induction) ([2]; rac)
1 | CCC[C@@H](N(NC(=O)c1ccc(OC)cc1)C(=O)c1cc(C)cc(C)c1)C(C)(C)C [Example 13, (R)-3,5-Dimethyl-benzoic acid N-(1-tert-butyl-butyl)-N′-(4-methoxy-benzoyl)-hydrazide] | 65 to 67 °C | 42.3 nM | 0.73 | 1.4 nM | 0.68 |  |  |  |  |  |  |  | 
2 | CCC[C@@H](N(NC(=O)c1cccc2ccccc12)C(=O)c1cc(C)cc(C)c1)C(C)(C)C [Example 23, (R)-3,5-Dimethyl-benzoic acid N-(1-tert-butyl-butyl)-N′-(naphthalene-1-carbonyl)-hydrazide] | 173 to 174 °C | 111 nM | 0.69 | ~10 nM | 0.73 |  |  |  |  |  |  |  | 
3 | CCC[C@@H](N(NC(=O)c1ccccc1C)C(=O)c1cc(C)cc(C)c1)C(C)(C)C [Example 3, (R)-3,5-Dimethyl-benzoic acid N-(1-tert-butyl-butyl)-N′-(2-methyl-benzoyl)-hydrazide] | 137 to 138 °C | 90 nM | 0.75 | 1.1 nM | 0.69 |  |  |  |  |  |  |  | 
4 | CCC[C@@H](N(NC(=O)c1cc(F)cc(F)c1)C(=O)c1cc(C)cc(C)c1)C(C)(C)C [Example 18, (R)-3,5-Dimethyl-benzoic acid N-(1-tert-butyl-butyl)-N′-(3,5-difluoro-benzoyl)-hydrazide] | 192 to 194 °C | 141 nM | 0.52 | ~10 nM | 0.79 |  |  |  |  |  |  |  | 
5 | CCC[C@@H](N(NC(=O)c1ccc(CC)cc1)C(=O)c1cc(C)cc(C)c1)C(C)(C)C [Example 12, (R)-3,5-Dimethyl-benzoic acid N-(1-tert-butyl-butyl)-N′-(4-ethyl-benzoyl)-hydrazide] | 111 to 112 °C | 23.6 nM | 0.78 | 0.56 nM | 0.82 |  |  |  |  |  |  |  | 
6 | CCC[C@@H](N(NC(=O)c1ccccc1Br)C(=O)c1cc(C)cc(C)c1)C(C)(C)C [Example 7, (R)-3,5-Dimethyl-benzoic acid N′-(2-bromo-benzoyl)-N-(1-tert-butyl-butyl)-hydrazide] | 145 to 147 °C | 78.7 nM | 0.58 | 1.4 nM | 0.90 |  |  |  |  |  |  |  | 
7 | CCC[C@@H](N(NC(=O)c1ccccc1F)C(=O)c1cc(C)cc(C)c1)C(C)(C)C [Example 5, (R)-3,5-Dimethyl-bcnzoic acid N-(1-tert-butyl-butyl)-N′-(2-fluoro-benzoyl)-hydrazide] | 114 to 116 °C | ~40 nM | 0.68 | ~0.8 nM | 1.16 |  |  |  |  |  |  |  | 
8 | CCC[C@@H](N(NC(=O)c1c(F)cccc1F)C(=O)c1cc(C)cc(C)c1)C(C)(C)C [Example 15, (R)-3,5-Dimethyl-benzoic acid N-(1-tert-butyl-butyl)-N′-(2,6-difluoro-benzoyl)-hydrazide] | 180 to 182 °C | 66.2 nM | 0.82 | 0.54 nM | 0.79 |  |  |  |  |  |  |  | 
9 | CCC[C@@H](N(NC(=O)c1cccc(Cl)c1)C(=O)c1cc(C)cc(C)c1)C(C)(C)C [Example 10, (R)-3,5-Dimethyl-benzoic acid N-(1-tert-butyl-butyl)-N′-(3-chloro-benzoyl)-hydrazide] | 163 to 164 °C | 94.5 nM | 0.87 | ~3 nM | 0.76 |  |  |  |  |  |  |  | 
10 | CCC[C@@H](N(NC(=O)c1ccc(OC)c(OC)c1)C(=O)c1cc(C)cc(C)c1)C(C)(C)C [Example 17, (R)-3,5-Dimethyl-benzoic acid N-(1-tert-butyl-butyl)-N′-(3,4-dimethoxy-benzoyl)-hydrazide] | 121 to 123 °C | ~4000 nM | 0.27 | ~300 nM | 0.53 |  |  |  |  |  |  |  | 
11 | CCC[C@@H](N(NC(=O)c1c(Cl)cccc1Cl)C(=O)c1cc(C)cc(C)c1)C(C)(C)C [Example 16] | 185 to 187 °C | ~300 nM | 0.53 | 51.2 nM | 0.83 |  |  |  |  |  |  |  | 
12 | CCC[C@@H](N(NC(=O)c1cccc(C)c1)C(=O)c1cc(C)cc(C)c1)C(C)(C)C [Example 8, (R)-3,5-Dimethyl-benzoic acid N-(1-tert-butyl-butyl)-N′-(3-methyl-benzoyl)-hydrazide] | 158 to 159 °C | ~30 nM | 0.86 | 1.2 nM | 0.92 |  |  |  |  |  |  |  | 
13 | CCC[C@@H](N(NC(=O)c1ccc(Cl)cc1)C(=O)c1cc(C)cc(C)c1)C(C)(C)C [Example 14, (R)-3,5-Dimethyl-benzoic acid N-(1-tert-butyl-butyl)-N′-(4-chloro-benzoyl)-hydrazide] | 87 to 89 °C | 140 nM | 0.74 | 51 nM | 0.74 |  |  |  |  |  |  |  | 
14 | CCC[C@@H](N(NC(=O)c1ccccc1)C(=O)c1cc(C)cc(C)c1)C(C)(C)C [Example 2, (R)-3,5-Dimethyl-benzoic acid N′-benzoyl-N-(1-tert-butyl-butyl)-hydrazide] | 66 to 68 °C | ~30 nM | 0.74 | 2.2 nM | 0.91 |  |  |  |  |  |  |  | 
15 | CCC[C@@H](N(NC(=O)[C@@H](C)c1ccc2cc(OC)ccc2c1)C(=O)c1cc(C)cc(C)c1)C(C)(C)C [Example 30, (R)-3,5-Dimethyl-benzoic Acid N-(1-tert-butyl-butyl)-N′—(S)-[2-(6-methoxy-naphthalen-2-yl)-propionyl]-hydrazide] | 98 °C |  |  |  |  |  |  |  |  |  |  |  | 
16 | CCC[C@@H](N(NC(=O)c1ccccc1Cl)C(=O)c1cc(C)cc(C)c1)C(C)(C)C [Example 6, (R)-3,5-Dimethyl-benzoic acid N-(1-tert-butyl-butyl)-N′-(2-chloro-benzoyl)-hydrazide] | 138 to 140 °C | ~20 nM | 0.88 | 0.63 nM | 1.01 |  |  |  |  |  |  |  | 
17 | CCC[C@@H](N(NC(=O)c1ccc2ccccc2c1)C(=O)c1cc(C)cc(C)c1)C(C)(C)C [Example 24, (R)-3,5-Dimethyl-benzoic acid N-(1-tert-butyl-butyl)-N′-(naphthalene-2-carbonyl)-hydrazide] | 91 °C | ~200 nM | 0.46 | ~20 nM | 0.80 |  |  |  |  |  |  |  | 
18 | CCC[C@@H](N(NC(=O)c1ccc2c(c1C)OCCO2)C(=O)c1cc(C)cc(C)c1)C(C)(C)C [Example 21, (R)-3,5-Dimethyl-benzoic acid N-(1-tert-butyl-butyl)-N′-(5-methyl-2,3-dihydro-benzo[1,4]dioxine-6-carbonyl)-hydrazide] | 70 °C | 0.304 nM | 0.87 | ~0.04 nM | 1.14 |  |  |  |  |  |  |  | 
19 | CCC[C@@H](N(NC(=O)c1ccc2c(c1CC)OCCO2)C(=O)c1cc(C)cc(C)c1)C(C)(C)C [Example 22, (R)-3,5-Dimethyl-benzoic acid N-(1-tert-butyl-butyl)-N′-(5-ethyl 2,3-dihydro-benzo[1,4]dioxine-6-carbonyl)-hydrazide] | 128 to 129 °C | 0.266 nM | 0.78 | 0.064 nM | 0.77 |  |  |  |  |  |  |  | 
20 | CCC[C@H](N(NC(=O)c1ccc(CC)cc1)C(=O)c1cc(C)cc(C)c1)C(C)(C)C [Example 39, (S)-3,5-Dimethyl-benzoic acid N-(1-tert-butyl-butyl)-N′-(4-ethyl-benzoyl)-hydrazide] |  |  |  |  |  | 418 nM | 0.29 | ~20 nM | 0.70 |  |  |  | 
21 | CCCC(N(NC(=O)c1cccc(OC)c1)C(=O)c1cc(C)cc(C)c1)C(C)(C)C (racemic) [rac-9] |  |  |  |  |  |  |  |  |  | 304 nM | 0.84 | 7.1 nM | 0.63
22 | C=CCC(C1CCCCC1)N(NC(=O)c1cccc(OC)c1C)C(=O)c1cc(OC)c(C)c(OC)c1 (racemic) [rac-61] |  |  |  |  |  |  |  |  |  | ~3300 nM | 0.31 | 521 nM | 0.39
23 | CCCC(N(NC(=O)c1ccccc1Cl)C(=O)c1cc(C)cc(C)c1)C(C)(C)C (racemic) [rac-6] |  |  |  |  |  |  |  |  |  | 59 nM | 0.72 | 1.2 nM | 0.95
24 | CCCC(N(NC(=O)c1cccc(Cl)c1)C(=O)c1cc(C)cc(C)c1)C(C)(C)C (racemic) [rac-10] |  |  |  |  |  |  |  |  |  | ~100 nM | 0.50 | 23.9 nM | 0.86

From US20200270225A1, “Chiral Diacylhydrazine Ligands for Modulating the Expression of Exogenous Genes via an Ecdysone Receptor Complex” (Intrexon Corporation, priority 2007, published 2020)
